Test results published in patent publication US7662973B2, “Fluorescent detection method and reagent” (GE Healthcare UK Limited, priority 2000, dated 2010).
Where a name gives a salt, the structure may show the parent alone.

Legend:
[1] = biological target: T1, Nitroreductase expressing cells (Escherichia coli, UniProt P38489); experiment: Cellular nitroreductase activity in living cells with cell permeable substrates (plate reader); format: cell-based; settings: 37° C.
T1 construct: expressed in transfected cells
T1 sequence (P38489 whole entry): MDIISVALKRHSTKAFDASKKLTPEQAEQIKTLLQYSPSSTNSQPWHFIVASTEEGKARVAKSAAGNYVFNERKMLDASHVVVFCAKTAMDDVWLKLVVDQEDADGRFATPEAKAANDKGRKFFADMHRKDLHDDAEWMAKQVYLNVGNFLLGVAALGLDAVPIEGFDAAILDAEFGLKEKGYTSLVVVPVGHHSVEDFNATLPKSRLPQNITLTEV
Method: Cy3Qee (Formula IIIa) and Cy5Qee (Formula IIIb) were evaluated as cell permeable fluorescence substrates for nitroreductase measurement in living cells. Nitroreductase expressing cells and control cells were cultured at 10,000 cells/well in 96 well plates in tissue culture medium containing 10% foetal calf serum and incubated at 37° C. in the presence of 10 μM Cy3Qee or 30 μM Cy5Qee.

[2] = biological target: T1, Nitroreductase expressing cells; experiment: Cellular nitroreductase activity in living cells by flow cytometry; format: cell-based; settings: 30 μM Cy3Qee, 2 hours 37° C.; 488 nm laser excitation, 585/42 nm emission
Method: Nitroreductase expressing cells and control cells were incubated for 2 hours at 37° C. in tissue culture media containing 30 μM Cy3Qee. Following incubation cells were washed with phosphate buffered saline and trypsinised to produce cell suspensions for flow cytometry.
Cells were analysed using a FACScalibur flow cytometer (Becton Dickinson) using 488 nm laser excitation and a 585/42 nm emission filter. Results (FIG. 12) show a significant increase in fluorescence in nitroreductase expressing cells (mean fluorescence 169.9) compared with control cells (mean fluorescence 18.2).

E. coli B nitroreductase = E. coli B nitroreductase (Escherichia coli, UniProt P38489); experiment: In vitro evaluation of cassette: reduction by nitroreductase; format: biochemical; settings: after lysate incubation, 5 minutes with nitroreductase; 610 nm excitation
Chain of E. coli B nitroreductase (P38489 whole entry): as above
Method: (§1) Cy5Q-Cascade blue cassette (0.8 mM in acetate buffer pH 5.0) was diluted to […] in PBS pH 7.4 containing 1 mM NADH. A cell lysate was prepared from 2×10^7 SKOV cells by re-suspension of scraped cells in 5 ml PBS at 4° C. and repeated passage through a 25 gauge syringe needle. Aliquots (1 ml) of Cy5Q-Cascade blue were incubated with 500 μl of cell lysate or PBS for 20 minutes at 37° C. Following incubation 100 μl of a 1 ng/μl solution of E. coli B nitroreductase was added to one sample and incubation continued for 5 minutes. Aliquots ([…]) were then dispensed in quadruplicate from each sample to a 96 well plate for measurement of fluorescence on a Cytofluor plate reader using 450 nm excitation/530 nm emission filters for cascade blue and 610 nm excitation/670 nm emission for Cy5.

SKOV cells lysate = experiment: In vitro evaluation of cassette: ester linker cleavage by cell lysate; format: cell-based; settings: 20 minutes 37° C., PBS pH 7.4, 1 mM NADH; 450 nm excitation
Method: as §1

[3] = 30 μM Cy5Qee, 610/20 nm excitation, 670/40 nm emission
[4] = 10 μM Cy3Qee, 530/25 nm excitation, 580/50 nm emission

CCOC(=O)Cc1ccc2c(c1)C(C)(C)C(/C=C/C=C/C=C1/N(C)c3ccc(CC(=O)OCC)cc3C1(C)C)=[N+]2Cc1cc([N+](=O)[O-])cc([N+](=O)[O-])c1 [Cy5Qee, 1-(3,5-dinitrobenzyl)-5-(2-ethoxy-2-oxoethyl)-2-{(1E,3E)-5-[6-(2-ethoxy-2-oxoethyl)-1,1,3-trimethyl-1,3-dihydro-2H-indol-2-ylidene]-1,3-pentadienyl}-3,3-dimethyl-3H-indoluim Salt]
fluorescence in control cells [1, 3]: minimal changes in fluorescence | fluorescence in nitroreductase expressing cells [1, 3]: significant time dependent increase in fluorescence

CCOC(=O)Cc1ccc2c(c1)C(C)(C)C(/C=C/C=C1/N(C)c3ccc(CC(=O)OCC)cc3C1(C)C)=[N+]2Cc1cc([N+](=O)[O-])cc([N+](=O)[O-])c1 [Cy3Qee]
mean fluorescence, control cells [2]: 18.2 | mean fluorescence, nitroreductase expressing cells [2]: 169.9 | fluorescence in control cells [1, 4]: minimal changes in fluorescence | fluorescence in nitroreductase expressing cells [1, 4]: significant time dependent increase in fluorescence

CC1(C)C(/C=C/C=C/C=C2/N(Cc3cc([N+](=O)[O-])cc([N+](=O)[O-])c3)c3ccc(S(=O)(=O)O)cc3C2(C)C)=[N+](CCCCCC(=O)Oc2cc(S(=O)(=O)O)c3ccc4c(S(=O)(=O)[O-])cc(S(=O)(=O)O)c5ccc2c3c45)c2ccc(S(=O)(=O)O)cc21 [Cy5Q-Cascade blue cassette]
fluorescence emission at 670 nm (Cy5) when nitroreductase enzyme is present (E. coli B nitroreductase): increase in fluorescence emission | fluorescence emission at 530 nm (Cascade Blue) in the presence of cell lysate (SKOV cells lysate): increase of fluorescence emission
